Experimental data from patent EP0357495A2, “3'Azido-3'-deoxythymidine (AZT) derivatives active against the AIDS virus” (IRE-CELLTARG S.A., priority 1988, dated 1990).

What was measured:
[1] = test system: virus HIV-1 (souche HTLV-IIIB); test: viral antigen expression in HIV-infected HUT-78 cells (indirect immunofluorescence, laser cytofluorescence); type: cell-based
Description: Les produits (AZT et AZT-5′ hémisuccinyl) à différentes concentrations ont été mis en présence de cellules HUT-78 infectées par le virus HIV-1 (souche HTLV-IIIB) à une multiplicité d'infection de 0.4. Tous les quatre jours, 3/4 du milieu ont été remplacés par du milieu frais. Après douze jours, l'expression des antigènes viraux a été mesurée par immunofluorescence indirecte à l'aide d'un sérum anti-HIV-I positif, et par cytofluorescence laser, tel que décrit par Pauwels et al. J. Virol. Meth. 16, 171-185 (1987).
Des résultats sont exprimés dans le tableau 3 en ED₅₀ et en pourcentage d'effet protecteur selon la formule : [formula] TABLEAU 3

cellules MT4 = test: cytotoxicity on non-infected MT4 cells (MTT method); type: cell-based
Experimental: Les produits (AZT, AZT-5′ hémisuccinyl et AZT 5′-leucyl) à différentes concentrations ont été mis en présence de cellules MT4 (4 X 10⁴ cellules par puits de microtray) infectées ou non avec 100 CCID₅₀ de virus HIV-1 (souche HTLV-IIIB). La CCID₅₀ représente la quantité de virus à rajouter pour obtenir une infection de 50 % des cellules (dose infectieuse de cellules en culture 50).
Après cinq jours d'incubation à 37°C, le nombre de cellules vivantes a été déterminé par la méthode au MTT, basée sur la réduction par les cellules vivantes du 3′-(4, 5-diméthylthiazol-2-yl)-2,5-diphényltétrazoliumbromide, jaune, en formazan, bleu. L'activité antivirale et la cytotoxicité sont exprimées sous forme de ED₅₀ et de CD₅₀. La CD₅₀ représente la dose qui tue 50 % des cellules non infectées et la ED₅₀ représente la dose qui protège 50 % des cellules de l'infection virale.
En effet l'AZT entre en compétition avec la thymidine au niveau des enzymes de phosphorylation qui vont le transformer en AZT triphosphate (AZT TP) qui est la forme active du produit. Un excès de thymidine réduit donc très fortement l'activité de l'AZT, ce qui se traduit par une ED₅₀ plus élevée. Par conséquent, si le dérivé de l'AZT doit son activité à la libération d'AZT qui à son tour est phosphorylé en AZT TP, un excès de thymidine aura également pour effet d'élever la ED₅₀ du dérivé. La thymidine étant cytotoxique à la concentration utilisée, il est nécessaire de rajouter de la 2′déoxycytidine pour empêcher cette toxicité.
Les protocoles expérimentaux sont ceux décrits à l'exemple 9 3.1) et 9 3).

[2] = in vivo toxicity, intraperitoneal, 5-day-old NMRI mice; set-up: species or system souriceaux NMRI; settings: AZT-5′hémisuccinyl, i.p.
Experimental: L'AZT et son dérivé 5′hémisuccinyl ont été administrés par voie infra-péritonéale à de souriceaux NMRI âgés de 5 jours (100 µl/g de poids corporel). Les animaux ont été contrôlés tous les jours selon 2 critères : survie et poids pendant 25 jours.
Les résultats sont repris au tableau 9. Les souriceaux traités n'ont pas montre de différence significative dans la prise de poids par rapport aux contrôles. Tableau 9

Compound: Cc1cn([C@H]2C[C@H](N=[N+]=[N-])[C@@H](COC(=O)CCC(=O)O)O2)c(=O)[nH]c1=O [AZT 5′hémisuccinyl, 5′-hémisuccinyl-3′-azido-3′-déoxythymidine]
- Pourcentage d'effet protecteur ([1]; HUT-78, day 12, concentration 0.022 µM): -23%
- Pourcentage d'effet protecteur ([1]; HUT-78, day 12, concentration 0.11 µM): 48%
- Pourcentage d'effet protecteur ([1]; HUT-78, day 12, concentration 0.54 µM): 21%
- Pourcentage d'effet protecteur ([1]; HUT-78, day 12, concentration 2.71 µM): 72%
- ED₅₀ ([1]; HUT-78 cells, multiplicity of infection 0.4, day 12): ED₅₀ AZT-5′hémisuccinyl = 1,77 µM
- toxicité (compared with AZT, in words) (cellules MT4; comparison with AZT): considérablement inférieure
- CD₅₀ (cellules MT4; tableau 2, non-infected MT4 cells, 5 days at 37°C, dose that kills 50 % of cells): 196 µM
- CD₅₀ (cellules MT4; tableau 4, MT-4, with thymidine (250µM) + 2′déoxy-cytidine (500 µM)): 362 µM
- CD₅₀ (cellules MT4; tableau 4, MT-4, without thymidine / 2′déoxycytidine): 295 µM
- Survivants au jour 25 ([2]; dose 1 g/kg poids corporel (équivalent AZT 0.73)): 100%
- Survivants au jour 25 ([2]; dose 2 g/kg poids corporel (équivalent AZT 1.46)): 100%
- Survivants au jour 25 ([2]; dose 3 g/kg poids corporel (équivalent AZT 2.2)): 50%
- mortalité/jour ([2]; dose 3 g/kg poids corporel (équivalent AZT 2.2), au jour 1): (50 % au jour 1)
